Data on 3 substances can be found in patent publication US5700906A, “Immunogenic peptide antigen corresponding to plasmodium vivax circumsporozoite protein” (New York University, priority 1987, dated 1997).

In assay [1] the test system is binding of a monoclonal antibody to extracts of sporozoites from a New Guinea vivax malaria. As to the kind of experiment: Competition of peptide with monoclonal antibody binding to New Guinea vivax sporozoite extracts. Set-up: species or system P. vivax. An excerpt:
Thus, although the P. vivax CS gene was isolated from a Brazilian strain of P. vivax, the epitope deduced from the sequence of the cloned gene appears to be present in all P. vivax CS proteins so far studied. The characterization of this gene and its encoded amino acid sequence allows synthesis of large amounts of the repetitive epitope and other antigenically active regions of the P. vivax CS protein and development of a protective vaccine using peptides corresponding to such regions.

Assay [2] has as its system monoclonal antibody 2F2. As to the kind of experiment: Inhibition of 2F2 binding to immobilized (DRADGQPAG)2 by synthetic peptides. The conditions noted are these: competing peptide 25 micrograms/ml. An excerpt: (§1) Monoclonal-antibody 2F2 from Example 5 was serially diluted in PBS-BSA (indicated in FIG. 5 by black triangles); or in PBS-BSA containing 25 micrograins/ml of synthetic peptide (NANP)3 (indicated by open triangles); or in PBS-BSA containing 25 micrograms/ml of the synthetic peptide of Example 4, i.e. (DRADGQPAG)2 (indicated by black circles).
(§2) An unrelated monoclonal-antibody 2AlO (anti-falciparum CS protein) was serially diluted in PBS-BSA (indicated by open squares). […] of each dilution were delivered to the bottom of microtiter plates which had previously been coated with a synthetic peptide (DRADGQPAG)2 saturated with 1% BSA. After 1 hour of incubation, the wells were washed with PBS-BSA in 50 microliters of ^125 I-labelled affinity-purified goat anti-mouse IgG (10^5 cpm; specific activity about 2×10^6 cpm/microgram). After an additional hour of incubation, the wells were washed with PBS-BSA and counted.

In assay [3] the test system is binding of monoclonal antibody 2F2 to immobilized P. vivax sporozoite extract. The experiment in a line: Inhibition of the binding of labelled monoclonal antibody 2F2 to immobilized P. vivax extracts. The conditions noted are these: at 0: 16,387 ± 1,085 cpm. How it is done:
100,000 cpm of 2F2 antibody labelled by ^125 I having a specific activity of about 2×10^6 cpm/microgram was diluted in PBS containing 1% BSA. The buffer also contained varying amounts of the synthetic peptide. The mixture was added to microtiter wells coated with P. vivax sporozoite extract. After one hour incubation in room temperature, the wells were washed three times with PBS containing 1% BSA and counted in the gamma counter.

For assay [4], the system named is anti-P. falciparum antibody 2AlO. As to the kind of experiment: Inhibition of binding of anti-P. falciparum antibody 2A10 to (NANP)3.
Description: as §1, §2
In other similar experiments, the binding of the anti-P. falciparum antibody 2AlO to the corresponding epitope (NANP)3 was not inhibited by the synthetic peptide (DRADGQPAG)2.^1

The test system of assay [5] is porcine elastase. The experiment in a line: Elastase treatment of CS protein, reactivity with monoclonal antibodies. It counts as biochemical. The text has this:
(c) One possible reading frame coded for an alanine-rich peptide.

For assay [6], the system named is binding of monoclonal antibody (2G3) to the CS protein of P. knowlesi. The experiment in a line: 12-MER inhibition of binding of monoclonal antibody 2G3 to the CS protein of P. knowlesi. An excerpt: Wells of microtiter plates were coated with the monoclonal antibody 2G3 washed with Tween-20, saturated with BSA as described supra. In one series of tubes, the 12-MER was serially diluted in PBS-BSA-Tween 20. In a second series of tubes, an extract of P. knowlesi sporozoites (prepared as described by Cochrane et al., supra) was serially diluted in PBS-BSA-Tween20. Aliquots of each dilution of sporozoites were mixed with equal volumes of all dilutions of 12-MER. 30 μI of these mixtures were then added to the bottom of the 2G3-coated wells. As positive and negative controls, 30 μl aliquots of sporozoite dilutions mixed with PBS-BSA-Tween 20 were added to other wells which had been precoated with 2G3 or with a non-relevant monoclonal antibody. After overnight incubation in the refrigerator, the wells were washed and 50 μl ([…]) of ^125 I-labeled 2G3 diluted in PBS-BSA-Tween 20 were added. Following an additional incubation at room temperature for 1 hour, the wells were washed and counted in a gamma counter.

Assay [7] deals with monoclonal antibody 2G3. The experiment in a line: Two-site immunoradiometric assay performed with monoclonal antibody 2G3 and synthetic peptides. It counts as binding. How it is done: The two synthetic peptides described in Example 7 were used in these studies. One of them was composed of the 12 amino acid sequence. H2 N-GlnAIaGlnGlyAspGlyAlaAsnAlaGlyGlnPro-COOH (12-MER) and the other was a dimer of the same sequence (24-MER). […] The assay was performed as follows:
Wells of microtiter plates (Falcon 3911) were incubated overnight at 4° C. with 50 μl of a 10 μg/ml solution in PBS of the monoclonal 2G3 anti-CS protein of P. knowlesi. The wells were washed with PBS and then incubated for 2 hours at room temperature, with PBS-Tween 20 (0.05% (w/v), and then for 3 additional hours with PBS-BSA (1% (w/v)). The synthetic peptides were diluted serially in PBS-BSA-Tween 20, and 30 μl aliquots of the dilutions were delivered to the bottom of individual wells. The plates were incubated overnight in the refrigerator, washed with PBS-BSA-Tween 20, and incubated with […] (10 ng) of ^125 I-labeled monoclonal antibody 2G3 diluted in PBS-BSA-Tween 20 (about 100,000 cpm). Controls consisted of plates coated with a non-relevant monoclonal antibody of the same isotype as 2G3.

Read-outs that look alike come from different tables or passages of the source. Where no end group is shown, it is not given here.

Take “H-(Asp-Gly-Gln-Pro-Ala-Gly-Asp-Arg-Ala)2 [(DRADGQPAG)2]”: in assay [1], the “competition with binding of monoclonal antibody to sporozoite extracts” value was “can compete”. Moreover, the “inhibition of binding of 2F2 to immobilized (DRADGQPAG)2” value in assay [2] was “totally inhibited”. In addition, the “Bound 125I-labeled 2F2” value in assay [3] (synthetic peptide 0.2 micrograms/ml) is given as 3,146 cpm; in assay [3] (synthetic peptide 2 micrograms/ml), 2,130 cpm; in assay [3] (synthetic peptide 20 micrograms/ml), 1,091 cpm; in assay [3] (synthetic peptide 200 micrograms/ml, mean of counts in four wells) it was 842 cpm. Besides, the “inhibition of binding of 2AlO to (NANP)3” value in assay [4] is reported as “not inhibited”.
With OOC-Ala Ala Pro Ala, the “inactivation of CS protein by elastase in presence of inhibitor” value in assay [5] is on record as “reversed”.
With “QAQGDGANAGQP [12-MER, H2 N-GlnAIaGlnGlyAspGlyAlaAsnAlaGlyGlnPro-COOH]”, the “inhibition of interaction of P. knowlesi CS protein with monoclonal antibody” value in assay [6] was “inhibited, in a dose-dependent fashion”; in assay [6] (listed as monomer), “compete with and specifically inhibit”. Further, the “Amount of 2G3 bound in the presence of 12-MER inhibitor” value in assay [6] (10^3 sporozoites/ml, 12-MER 0.08 mg/ml, 156 cpm at 0) is on record as 72 cpm; in assay [6] (10^3 sporozoites/ml, 12-MER 0.6 mg/ml, 156 cpm at 0), 0 cpm; in assay [6] (10^3 sporozoites/ml, 12-MER 5.0 mg/ml, 156 cpm at 0), 37 cpm; in assay [6] (10^4 sporozoites/ml, 12-MER 0.08 mg/ml, 1353 cpm at 0), 102 cpm; in assay [6] (10^4 sporozoites/ml, 12-MER 0.6 mg/ml, 1353 cpm at 0) it was 70 cpm; in assay [6] (10^4 sporozoites/ml, 12-MER 5.0 mg/ml, 1353 cpm at 0), 3 cpm. Also, the “Amount of 2G3 bound in the presence of 12-MER inhibitor” value was found to be 1221 cpm in assay [6] (10^5 sporozoites/ml, 12-MER 0.08 mg/ml, 4390 cpm at 0); 781 cpm in assay [6] (10^5 sporozoites/ml, 12-MER 0.6 mg/ml, 4390 cpm at 0); 361 cpm in assay [6] (10^5 sporozoites/ml, 12-MER 5.0 mg/ml, 4390 cpm at 0); 3893 cpm in assay [6] (10^6 sporozoites/ml, 12-MER 0.08 mg/ml, 5582 cpm at 0); 3018 cpm in assay [6] (10^6 sporozoites/ml, 12-MER 0.6 mg/ml, 5582 cpm at 0); 1099 cpm in assay [6] (10^6 sporozoites/ml, 12-MER 5.0 mg/ml, 5582 cpm at 0). Moreover, the “two-site radioimmunoassay reactivity” value in assay [7] (monoclonal antibody to P. knowlesi CS protein) is “did not bind”. The “Amount of radiolabeled 2G3 bound” value in assay [7] (peptide 5 ug/ml) was 40 cpm; in assay [7] (peptide 50 ug/ml), 103 cpm; in assay [7] (peptide 500 ug/ml) it was 157 cpm; in assay [7] (peptide .5 ug/ml), 0 cpm.
